According to ChEMBL document CHEMBL1155782 (Bioorg Med Chem, 2008):
pKi: −log10 of the molar value.

Legend:
[1] = target: Carbonic anhydrase 13 (Mus musculus, UniProt Q9D6N1)
Description: Inhibition of mouse carbonic anhydrase 13 by stopped-flow CO2 hydration assay

[2] = target: Carbonic anhydrase 9 (Homo sapiens, UniProt Q16790)
Description: Inhibition of human carbonic anhydrase 9 catalytic domain by stopped-flow CO2 hydration assay

[3] = target: Carbonic anhydrase 12 (Homo sapiens, UniProt O43570)
Description: Inhibition of human carbonic anhydrase 12 catalytic domain by stopped-flow CO2 hydration assay

[4] = target: Carbonic anhydrase 14 (Homo sapiens, UniProt Q9ULX7)
Description: Inhibition of human carbonic anhydrase 14 by stopped-flow CO2 hydration assay

[5] = target: Carbonic anhydrase 3 (Homo sapiens, UniProt P07451)
Description: Inhibition of human carbonic anhydrase 3 by stopped-flow CO2 hydration assay

[6] = target: Carbonic anhydrase 4 (Homo sapiens, UniProt P22748)
Description: Inhibition of human carbonic anhydrase 4 by stopped-flow CO2 hydration assay

[7] = target: Carbonic anhydrase 5A, mitochondrial (Homo sapiens, UniProt P35218)
Description: Inhibition of human carbonic anhydrase 5A by stopped-flow CO2 hydration assay

[8] = target: Carbonic anhydrase 5B, mitochondrial (Homo sapiens, UniProt Q9Y2D0)
Description: Inhibition of human carbonic anhydrase 5B by stopped-flow CO2 hydration assay

[9] = target: Carbonic anhydrase 6 (Homo sapiens, UniProt P23280)
Description: Inhibition of human carbonic anhydrase 6 by stopped-flow CO2 hydration assay

[10] = target: Carbonic anhydrase 7 (Homo sapiens, UniProt P43166)
Sequence of Carbonic anhydrase 7 (P43166 whole entry): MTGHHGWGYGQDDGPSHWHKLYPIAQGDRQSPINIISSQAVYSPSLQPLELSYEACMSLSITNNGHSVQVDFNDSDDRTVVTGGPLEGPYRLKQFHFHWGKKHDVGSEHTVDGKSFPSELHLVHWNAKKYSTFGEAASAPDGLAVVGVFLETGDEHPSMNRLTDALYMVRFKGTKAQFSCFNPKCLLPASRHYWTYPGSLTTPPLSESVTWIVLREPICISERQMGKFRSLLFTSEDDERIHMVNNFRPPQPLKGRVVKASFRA
Description: Inhibition of human carbonic anhydrase 7 by stopped-flow CO2 hydration assay

Sequence of Carbonic anhydrase 4 (P22748 whole entry): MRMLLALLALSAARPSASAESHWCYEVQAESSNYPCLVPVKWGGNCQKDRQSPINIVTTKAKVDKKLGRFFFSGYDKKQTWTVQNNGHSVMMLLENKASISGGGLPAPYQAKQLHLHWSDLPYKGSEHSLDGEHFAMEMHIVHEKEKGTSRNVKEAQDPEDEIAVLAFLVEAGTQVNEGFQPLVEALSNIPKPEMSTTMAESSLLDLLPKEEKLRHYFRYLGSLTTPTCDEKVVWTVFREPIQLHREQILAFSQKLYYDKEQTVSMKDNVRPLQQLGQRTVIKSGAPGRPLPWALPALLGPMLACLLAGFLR
Sequence of Carbonic anhydrase 14 (Q9ULX7 whole entry): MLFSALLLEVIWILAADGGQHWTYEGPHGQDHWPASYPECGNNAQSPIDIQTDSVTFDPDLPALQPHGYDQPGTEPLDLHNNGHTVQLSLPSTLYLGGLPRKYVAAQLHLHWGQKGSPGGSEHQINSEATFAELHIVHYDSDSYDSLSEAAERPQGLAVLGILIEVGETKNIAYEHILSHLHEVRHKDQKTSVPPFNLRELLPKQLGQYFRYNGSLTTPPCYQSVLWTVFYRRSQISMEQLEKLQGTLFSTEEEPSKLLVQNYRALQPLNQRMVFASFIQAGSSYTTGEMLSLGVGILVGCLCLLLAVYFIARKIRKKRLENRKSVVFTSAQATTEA
Sequence of Carbonic anhydrase 3 (P07451 whole entry): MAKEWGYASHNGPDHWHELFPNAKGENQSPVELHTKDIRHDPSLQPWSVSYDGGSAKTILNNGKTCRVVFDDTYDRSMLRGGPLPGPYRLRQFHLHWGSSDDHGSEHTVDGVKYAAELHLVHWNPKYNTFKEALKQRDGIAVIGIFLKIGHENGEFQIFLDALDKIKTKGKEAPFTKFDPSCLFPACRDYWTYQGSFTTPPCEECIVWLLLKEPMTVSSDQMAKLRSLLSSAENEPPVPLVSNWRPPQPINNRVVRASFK
Sequence of Carbonic anhydrase 5A, mitochondrial (P35218 whole entry): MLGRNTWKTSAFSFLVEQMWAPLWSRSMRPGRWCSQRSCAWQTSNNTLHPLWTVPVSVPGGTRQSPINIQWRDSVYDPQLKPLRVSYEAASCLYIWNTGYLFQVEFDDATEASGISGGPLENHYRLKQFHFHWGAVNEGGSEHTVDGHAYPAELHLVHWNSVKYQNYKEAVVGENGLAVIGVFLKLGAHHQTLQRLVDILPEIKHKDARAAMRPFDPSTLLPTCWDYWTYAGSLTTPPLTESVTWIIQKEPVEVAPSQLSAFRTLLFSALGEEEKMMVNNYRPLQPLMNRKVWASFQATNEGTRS
Sequence of Carbonic anhydrase 12 (O43570 whole entry): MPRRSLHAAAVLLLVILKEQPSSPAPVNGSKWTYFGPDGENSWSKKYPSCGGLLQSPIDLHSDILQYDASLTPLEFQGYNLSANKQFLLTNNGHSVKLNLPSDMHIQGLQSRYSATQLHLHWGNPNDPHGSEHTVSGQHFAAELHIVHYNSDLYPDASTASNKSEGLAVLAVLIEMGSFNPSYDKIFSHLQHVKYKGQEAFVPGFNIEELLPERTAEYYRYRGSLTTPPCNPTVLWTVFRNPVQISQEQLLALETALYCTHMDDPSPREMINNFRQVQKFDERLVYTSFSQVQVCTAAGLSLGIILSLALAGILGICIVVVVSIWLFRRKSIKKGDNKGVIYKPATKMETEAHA
Sequence of Carbonic anhydrase 13 (Q9D6N1 whole entry): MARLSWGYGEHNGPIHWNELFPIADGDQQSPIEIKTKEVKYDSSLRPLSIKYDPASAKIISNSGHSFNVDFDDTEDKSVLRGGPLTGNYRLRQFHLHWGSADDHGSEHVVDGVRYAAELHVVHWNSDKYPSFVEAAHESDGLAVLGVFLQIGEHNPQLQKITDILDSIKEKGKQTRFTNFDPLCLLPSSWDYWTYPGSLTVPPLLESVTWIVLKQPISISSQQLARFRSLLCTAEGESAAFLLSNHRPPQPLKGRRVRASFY
Sequence of Carbonic anhydrase 6 (P23280 whole entry): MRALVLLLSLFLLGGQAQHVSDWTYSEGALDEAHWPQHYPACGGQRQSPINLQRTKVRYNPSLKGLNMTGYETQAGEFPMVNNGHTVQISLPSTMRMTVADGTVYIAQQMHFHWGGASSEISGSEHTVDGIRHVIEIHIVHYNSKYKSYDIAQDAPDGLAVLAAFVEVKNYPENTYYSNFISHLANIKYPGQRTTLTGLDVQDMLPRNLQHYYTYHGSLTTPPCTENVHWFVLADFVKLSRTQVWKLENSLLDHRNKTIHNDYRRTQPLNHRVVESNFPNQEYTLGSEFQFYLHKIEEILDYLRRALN
Sequence of Carbonic anhydrase 5B, mitochondrial (Q9Y2D0 whole entry): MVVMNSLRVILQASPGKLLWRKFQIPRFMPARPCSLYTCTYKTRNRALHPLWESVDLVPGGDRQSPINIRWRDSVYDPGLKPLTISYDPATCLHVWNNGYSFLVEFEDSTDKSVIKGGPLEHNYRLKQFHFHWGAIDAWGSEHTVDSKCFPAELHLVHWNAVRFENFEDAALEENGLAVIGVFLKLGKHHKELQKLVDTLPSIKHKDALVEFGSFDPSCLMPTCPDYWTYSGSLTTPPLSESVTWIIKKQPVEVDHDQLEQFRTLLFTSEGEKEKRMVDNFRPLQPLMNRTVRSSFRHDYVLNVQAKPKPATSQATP

Oc1cccc(O)c1 [RESORCINOL] was tested, and the pKi [1] was 4.20, the pKi [2] was 4.16 and the pKi [3] was 5.12. The pKi [4] was 4.97, the pKi [5] was 3.22 and the pKi [6] was 3.24. For the same compound, the pKi [7] was 5.06, the pKi [8] was 5.15 and the pKi [9] was 3.26. It also gave a pKi [10] of 3.19.

Oc1ccccc1O [CATECHOL] showed a pKi [1] of 4.91, a pKi [2] of 3.94 and a pKi [3] of 5.05. For the same compound, the pKi [4] was 4.31, the pKi [5] was 4.89 and the pKi [7] was 4.26. It also gave a pKi [8] of 5.38, a pKi [9] of 3.22 and a pKi [10] of 3.15.

In the case of Oc1cc(F)ccc1F, the pKi [1] was 4.16, the pKi [2] was 4.16 and the pKi [3] was 3.22. The pKi [4] was 4.47, the pKi [5] was 4.97 and the pKi [6] was 3.37. It also gave a pKi [7] of 4.92, a pKi [8] of 4.29 and a pKi [9] of 4.04. For the same compound, the pKi [10] was 3.26.

For CC(=O)Nc1ccc(O)cc1 [ACETAMINOPHEN], the pKi [1] was 4.52, the pKi [2] was 4.15 and the pKi [3] was 5.39. For the same compound, the pKi [4] was 4.97, the pKi [5] was 5.15 and the pKi [6] was 4.94. The pKi [7] was 3.10, the pKi [8] was 3.53 and the pKi [9] was 3.18.

Compound O=C(O)c1ccc(O)cc1 [PARABEN] has a pKi [1] of 4.07, a pKi [2] of 3.93 and a pKi [3] of 5.32. For the same compound, the pKi [4] was 4.46, the pKi [5] was 3.16 and the pKi [6] was 3.09. It also gave a pKi [7] of 5.04, a pKi [9] of 4.94 and a pKi [10] of 3.15.

Work on Oc1ccc(O)cc1 [HYDROQUINONE] yielded a pKi [1] of 4.13, a pKi [2] of 4.49 and a pKi [3] of 5.11. It also gave a pKi [4] of 4.38, a pKi [5] of 5.09 and a pKi [7] of 4.85. The pKi [8] was 4.90, the pKi [9] was 3.28 and the pKi [10] was 3.05.

N#Cc1ccc(O)cc1 [4-CYANOPHENOL] showed a pKi [1] of 4.35, a pKi [2] of 4.25 and a pKi [6] of 3.20. For the same compound, the pKi [7] was 3.28, the pKi [8] was 3.25 and the pKi [10] was 3.11.
